Reference: ChEMBL document CHEMBL5291721, “A preclinical secondary pharmacology resource illuminates target-adverse drug reaction associations of marketed drugs” (Nat Commun, 2023)

Columns and labels:
Vasopressin V2 receptor = Vasopressin V2 receptor (Homo sapiens, UniProt P30518)
Cannabinoid receptor 1 = Cannabinoid receptor 1 (Homo sapiens, UniProt P21554); format: functional, cell-based
[1] = target: Kappa-type opioid receptor (Homo sapiens, UniProt P41145)
D(3) dopamine receptor = D(3) dopamine receptor (Homo sapiens, UniProt P35462)
Adenosine receptor A3 = target: T1, Adenosine receptor A3 (Homo sapiens, UniProt P0DMS8)
T1 sequence (P0DMS8 whole entry): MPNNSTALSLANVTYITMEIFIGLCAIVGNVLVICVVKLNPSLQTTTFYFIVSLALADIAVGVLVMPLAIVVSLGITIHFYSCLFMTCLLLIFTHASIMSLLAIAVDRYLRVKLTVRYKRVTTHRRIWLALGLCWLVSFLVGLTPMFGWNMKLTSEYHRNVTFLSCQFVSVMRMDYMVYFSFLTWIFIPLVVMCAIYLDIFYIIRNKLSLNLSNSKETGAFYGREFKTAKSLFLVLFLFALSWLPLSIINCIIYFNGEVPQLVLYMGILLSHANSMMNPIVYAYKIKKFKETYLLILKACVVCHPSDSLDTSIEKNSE

[2] = target: T2, Alpha-2B adrenergic receptor (Homo sapiens, UniProt P18089)
T2 sequence (P18089 whole entry): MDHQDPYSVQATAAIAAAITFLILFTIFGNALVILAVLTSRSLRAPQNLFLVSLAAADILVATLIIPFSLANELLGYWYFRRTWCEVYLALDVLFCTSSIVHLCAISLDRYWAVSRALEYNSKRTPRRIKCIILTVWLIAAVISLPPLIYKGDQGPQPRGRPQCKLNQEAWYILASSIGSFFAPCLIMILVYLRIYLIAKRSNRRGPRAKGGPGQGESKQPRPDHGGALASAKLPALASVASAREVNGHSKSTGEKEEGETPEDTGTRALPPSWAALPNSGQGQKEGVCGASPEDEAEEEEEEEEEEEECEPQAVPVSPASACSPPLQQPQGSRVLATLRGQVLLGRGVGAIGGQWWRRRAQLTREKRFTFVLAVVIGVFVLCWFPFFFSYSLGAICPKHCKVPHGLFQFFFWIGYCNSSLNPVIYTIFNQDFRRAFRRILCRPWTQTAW

[3] = target: T3, Amine oxidase [flavin-containing] A (Homo sapiens, UniProt P21397); format: functional
T3 sequence (P21397 whole entry): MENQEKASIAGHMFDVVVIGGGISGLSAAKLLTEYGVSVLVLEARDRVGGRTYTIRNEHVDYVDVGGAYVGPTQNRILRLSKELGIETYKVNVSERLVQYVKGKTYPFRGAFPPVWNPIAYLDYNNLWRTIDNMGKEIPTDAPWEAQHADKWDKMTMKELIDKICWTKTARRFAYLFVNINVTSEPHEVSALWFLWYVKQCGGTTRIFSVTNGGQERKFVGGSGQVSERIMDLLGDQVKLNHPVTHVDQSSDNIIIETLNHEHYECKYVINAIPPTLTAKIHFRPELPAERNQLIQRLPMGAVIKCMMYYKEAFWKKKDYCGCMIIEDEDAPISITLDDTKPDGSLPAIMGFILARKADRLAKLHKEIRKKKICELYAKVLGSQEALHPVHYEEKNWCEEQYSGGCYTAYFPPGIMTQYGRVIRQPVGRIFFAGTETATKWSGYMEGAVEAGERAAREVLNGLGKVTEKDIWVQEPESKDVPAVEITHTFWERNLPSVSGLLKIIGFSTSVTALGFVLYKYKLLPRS

[4] = target: Gamma-aminobutyric acid receptor subunit alpha-1 (Rattus norvegicus, UniProt P62813); format: functional
[5] = target: T4, Muscarinic acetylcholine receptor M2 (Homo sapiens, UniProt P08172); format: functional, cell-based
T4 sequence (P08172 whole entry): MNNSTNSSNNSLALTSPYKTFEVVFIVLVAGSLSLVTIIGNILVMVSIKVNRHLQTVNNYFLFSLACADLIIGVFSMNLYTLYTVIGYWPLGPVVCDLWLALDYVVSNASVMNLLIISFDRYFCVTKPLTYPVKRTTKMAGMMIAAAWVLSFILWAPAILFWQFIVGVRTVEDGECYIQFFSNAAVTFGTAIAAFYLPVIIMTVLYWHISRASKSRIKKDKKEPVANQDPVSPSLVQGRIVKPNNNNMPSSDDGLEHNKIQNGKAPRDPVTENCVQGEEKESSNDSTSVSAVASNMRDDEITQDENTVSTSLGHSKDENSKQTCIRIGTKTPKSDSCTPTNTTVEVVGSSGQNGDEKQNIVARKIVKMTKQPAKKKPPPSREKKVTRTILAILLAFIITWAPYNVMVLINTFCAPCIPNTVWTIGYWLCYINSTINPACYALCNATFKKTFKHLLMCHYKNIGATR

Progesterone receptor = target: T5, Progesterone receptor (Homo sapiens, UniProt P06401); format: functional
T5 sequence (P06401 whole entry): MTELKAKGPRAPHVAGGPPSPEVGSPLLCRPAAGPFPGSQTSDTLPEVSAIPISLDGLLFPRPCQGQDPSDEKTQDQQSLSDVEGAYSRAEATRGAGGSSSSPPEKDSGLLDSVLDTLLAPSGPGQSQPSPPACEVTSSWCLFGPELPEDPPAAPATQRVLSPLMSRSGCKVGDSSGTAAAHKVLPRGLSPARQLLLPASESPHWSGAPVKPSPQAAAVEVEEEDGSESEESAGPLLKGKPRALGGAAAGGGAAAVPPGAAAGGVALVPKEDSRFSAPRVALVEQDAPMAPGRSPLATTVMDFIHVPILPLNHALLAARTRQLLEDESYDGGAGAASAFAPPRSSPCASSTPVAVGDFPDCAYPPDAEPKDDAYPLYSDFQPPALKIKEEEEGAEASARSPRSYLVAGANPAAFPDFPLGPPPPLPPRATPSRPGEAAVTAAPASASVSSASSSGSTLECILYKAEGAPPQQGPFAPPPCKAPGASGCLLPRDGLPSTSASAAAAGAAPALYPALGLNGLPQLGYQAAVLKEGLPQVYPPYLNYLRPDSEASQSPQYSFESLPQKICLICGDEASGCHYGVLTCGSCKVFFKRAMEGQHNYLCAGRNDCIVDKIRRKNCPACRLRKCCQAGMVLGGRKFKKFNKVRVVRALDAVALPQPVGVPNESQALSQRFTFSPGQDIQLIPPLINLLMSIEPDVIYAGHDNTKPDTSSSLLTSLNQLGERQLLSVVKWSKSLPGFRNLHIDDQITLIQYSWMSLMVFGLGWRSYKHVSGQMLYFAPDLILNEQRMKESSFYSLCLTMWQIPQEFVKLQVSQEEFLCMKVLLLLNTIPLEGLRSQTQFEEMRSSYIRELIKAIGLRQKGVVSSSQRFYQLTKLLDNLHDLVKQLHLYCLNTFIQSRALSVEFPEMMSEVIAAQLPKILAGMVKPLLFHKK
Note: assay procedure not described here.

Chain of Cannabinoid receptor 1 (P21554 whole entry): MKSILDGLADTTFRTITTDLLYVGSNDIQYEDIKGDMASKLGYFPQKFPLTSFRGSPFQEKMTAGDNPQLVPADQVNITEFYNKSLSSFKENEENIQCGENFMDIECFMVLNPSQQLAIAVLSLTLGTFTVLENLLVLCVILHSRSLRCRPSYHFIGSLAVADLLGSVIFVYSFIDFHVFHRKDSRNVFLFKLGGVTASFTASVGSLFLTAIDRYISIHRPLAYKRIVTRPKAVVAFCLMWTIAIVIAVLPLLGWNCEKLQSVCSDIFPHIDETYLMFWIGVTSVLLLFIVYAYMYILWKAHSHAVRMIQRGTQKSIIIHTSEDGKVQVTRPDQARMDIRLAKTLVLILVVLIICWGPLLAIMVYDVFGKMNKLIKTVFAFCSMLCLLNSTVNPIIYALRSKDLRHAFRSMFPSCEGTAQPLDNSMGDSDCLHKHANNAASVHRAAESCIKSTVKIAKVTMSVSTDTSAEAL
Chain of D(3) dopamine receptor (P35462 whole entry): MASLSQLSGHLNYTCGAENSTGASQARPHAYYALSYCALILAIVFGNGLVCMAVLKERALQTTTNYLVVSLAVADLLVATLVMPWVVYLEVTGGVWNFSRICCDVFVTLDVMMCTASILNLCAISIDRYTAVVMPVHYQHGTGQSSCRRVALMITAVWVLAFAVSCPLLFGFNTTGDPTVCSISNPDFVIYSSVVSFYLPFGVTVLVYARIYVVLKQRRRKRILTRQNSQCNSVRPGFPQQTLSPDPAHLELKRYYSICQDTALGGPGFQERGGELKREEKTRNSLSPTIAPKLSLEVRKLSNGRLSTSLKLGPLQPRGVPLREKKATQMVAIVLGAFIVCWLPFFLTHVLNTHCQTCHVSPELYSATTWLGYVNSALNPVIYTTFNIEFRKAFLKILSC
Chain of Gamma-aminobutyric acid receptor subunit alpha-1 (P62813 whole entry): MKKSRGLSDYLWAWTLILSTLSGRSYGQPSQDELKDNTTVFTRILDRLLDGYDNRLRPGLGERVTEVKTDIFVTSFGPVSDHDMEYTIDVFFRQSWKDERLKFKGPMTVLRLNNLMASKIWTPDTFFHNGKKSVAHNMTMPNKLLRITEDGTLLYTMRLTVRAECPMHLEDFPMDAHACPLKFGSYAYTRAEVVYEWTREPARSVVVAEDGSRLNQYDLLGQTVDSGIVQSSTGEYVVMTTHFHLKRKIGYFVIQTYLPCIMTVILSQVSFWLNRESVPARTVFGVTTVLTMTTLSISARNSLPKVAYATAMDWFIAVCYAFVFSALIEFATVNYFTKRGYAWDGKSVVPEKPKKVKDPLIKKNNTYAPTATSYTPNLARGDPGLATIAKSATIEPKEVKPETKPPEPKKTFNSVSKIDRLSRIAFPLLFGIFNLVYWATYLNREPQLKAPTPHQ
Chain of Vasopressin V2 receptor (P30518 whole entry): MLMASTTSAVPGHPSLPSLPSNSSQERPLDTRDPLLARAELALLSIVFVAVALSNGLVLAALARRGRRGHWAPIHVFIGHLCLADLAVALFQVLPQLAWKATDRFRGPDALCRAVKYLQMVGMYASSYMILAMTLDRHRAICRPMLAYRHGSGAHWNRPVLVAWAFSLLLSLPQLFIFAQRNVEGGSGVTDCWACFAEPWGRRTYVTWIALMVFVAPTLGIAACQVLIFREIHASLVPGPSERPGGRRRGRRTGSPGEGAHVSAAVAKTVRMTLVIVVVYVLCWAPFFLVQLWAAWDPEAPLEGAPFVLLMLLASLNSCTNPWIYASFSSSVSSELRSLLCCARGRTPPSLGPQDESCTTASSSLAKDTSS
Chain of Kappa-type opioid receptor (P41145 whole entry): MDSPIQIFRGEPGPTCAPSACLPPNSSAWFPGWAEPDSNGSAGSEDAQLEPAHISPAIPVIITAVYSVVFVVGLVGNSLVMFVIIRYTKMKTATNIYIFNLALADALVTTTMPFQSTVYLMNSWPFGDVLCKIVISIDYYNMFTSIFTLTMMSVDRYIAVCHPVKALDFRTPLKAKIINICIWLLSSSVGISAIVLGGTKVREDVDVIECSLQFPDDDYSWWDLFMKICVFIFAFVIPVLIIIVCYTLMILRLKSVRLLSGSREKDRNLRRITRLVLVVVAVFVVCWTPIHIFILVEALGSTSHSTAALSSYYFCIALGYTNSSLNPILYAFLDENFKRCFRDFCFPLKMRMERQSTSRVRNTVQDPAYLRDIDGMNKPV

SMILES	AC50 (Vasopressin V2 receptor)	AC50 (Cannabinoid receptor 1)	AC50 [1]	AC50 (D(3) dopamine receptor)	AC50 (Adenosine receptor A3)	AC50 [2]	AC50 [3]	AC50 [4]	AC50 [5]	AC50 (Progesterone receptor)
CC[C@@H]1C(=O)OC[C@@H]1Cc1cncn1C [PILOCARPINE]	> 30 µM	> 30 µM	> 10 µM	> 30 µM	> 30 µM	> 10 µM	> 10 µM	> 10 µM	–	–
CCCCc1ncc(/C=C(\Cc2cccs2)C(=O)O)n1Cc1ccc(C(=O)O)cc1 [EPROSARTAN]	> 30 µM	> 30 µM	> 10 µM	> 10 µM	> 10 µM	> 10 µM	> 10 µM	> 10 µM	> 10 µM	–
CC(=O)OCC(=O)[C@@]12N=C(C)O[C@@H]1C[C@H]1[C@@H]3CCC4=CC(=O)C=C[C@]4(C)[C@H]3[C@@H](O)C[C@@]12C [DEFLAZACORT]	> 30 µM	> 30 µM	> 30 µM	> 30 µM	> 30 µM	> 30 µM	> 30 µM	> 30 µM	> 30 µM	–
CCN1CCN(C(=O)N[C@@H](C(=O)N[C@@H]2C(=O)N3C(C(=O)O)=C(CSc4nnnn4C)CS[C@H]23)c2ccc(O)cc2)C(=O)C1=O [CEFOPERAZONE]	> 30 µM	> 30 µM	> 10 µM	> 30 µM	> 30 µM	> 30 µM	> 30 µM	> 30 µM	> 30 µM	–
CN1C(=O)C(O)N=C(c2ccccc2)c2cc(Cl)ccc21 (stereo unspecified) [TEMAZEPAM]	> 30 µM	> 30 µM	9.19 µM	> 10 µM	> 30 µM	> 10 µM	> 10 µM	0.044 µM	> 10 µM	–
COC(=O)C1=C(C)NC(C)=C(C(=O)OC2CCCN(Cc3ccccc3)C2)C1c1cccc([N+](=O)[O-])c1 (stereo unspecified) [BENIDIPINE]	> 30 µM	16 µM	1.5 µM	16 µM	3.5 µM	> 30 µM	> 30 µM	> 30 µM	> 30 µM	–
C[C@H](N)[C@H](O)c1cccc(O)c1 [METARAMINOL]	> 10 µM	–	> 10 µM	> 30 µM	> 10 µM	> 10 µM	> 10 µM	> 10 µM	> 10 µM	> 10 µM
CC(C(=O)O)c1ccc(N2Cc3ccccc3C2=O)cc1 (stereo unspecified) [INDOPROFEN]	> 30 µM	–	> 30 µM	> 30 µM	> 30 µM	> 30 µM	> 30 µM	> 30 µM	> 30 µM	> 30 µM
COC(=O)C1=C(C)NC(C)=C(C(=O)OC(C)(C)CN(C)CCC(c2ccccc2)c2ccccc2)C1c1cccc([N+](=O)[O-])c1 (stereo unspecified) [LERCANIDIPINE]	> 30 µM	–	3.8 µM	> 30 µM	8.8 µM	> 30 µM	> 30 µM	> 30 µM	> 30 µM	> 30 µM
COc1ccc2c3c1O[C@H]1[C@@H](O)C=C[C@H]4[C@@H](C2)N(C)CC[C@@]341 [CODEINE]	> 30 µM	> 30 µM	–	> 10 µM	> 30 µM	> 10 µM	> 10 µM	> 10 µM	> 10 µM	–
O=C(O)[C@H](CC(=O)N1C[C@H]2CCCC[C@H]2C1)Cc1ccccc1 [MITIGLINIDE]	> 10 µM	–	> 10 µM	> 30 µM	> 10 µM	> 10 µM	> 10 µM	> 10 µM	> 10 µM	> 10 µM
CC(Oc1c(Cl)cccc1Cl)C1=NCCN1 (stereo unspecified) [LOFEXIDINE]	> 30 µM	–	22 µM	> 30 µM	> 30 µM	0.74 µM	> 30 µM	> 30 µM	> 30 µM	> 30 µM
C=CCC1(CC(C)C)C(=O)NC(=O)NC1=O [BUTALBITAL]	> 10 µM	–	> 10 µM	> 30 µM	> 10 µM	> 30 µM	> 30 µM	> 10 µM	> 10 µM	> 10 µM
COc1ccc(CCN(C)CCCC(C#N)(c2cc(OC)c(OC)c(OC)c2)C(C)C)cc1OC (stereo unspecified) [GALLOPAMIL]	> 30 µM	> 30 µM	2.5 µM	3.3 µM	> 30 µM	> 30 µM	> 30 µM	> 30 µM	> 30 µM	–
CC(C)=CCC/C(C)=C/C=C/C(C)=C/C=C/C(C)=C/C=C/C=C(C)/C=C/C=C(C)/C=C/C=C(\C)CCC=C(C)C [LYCOPENE]	> 30 µM	–	> 30 µM	> 30 µM	> 30 µM	> 30 µM	> 30 µM	> 30 µM	> 30 µM	6.2 µM
CN1CCC(=C2c3ccccc3CCc3sccc32)CC1 [PIZOTYLINE]	> 30 µM	> 30 µM	1.57 µM	4.3 µM	> 30 µM	0.51 µM	> 10 µM	> 10 µM	> 30 µM	–
Nc1nc(/C(=C/CC(=O)O)C(=O)N[C@@H]2C(=O)N3C(C(=O)O)=CCS[C@H]23)cs1 [CEFTIBUTEN]	> 30 µM	–	> 30 µM	> 30 µM	> 30 µM	> 30 µM	> 30 µM	> 30 µM	> 30 µM	> 30 µM
